Laboratory results reported in US10308643B2, “Heterocyclic compound” (Takeda Pharmaceutical Company Limited, priority 2015, dated 2019).

Columns and labels:
Assay type in all cases: biochemical
HDAC1 enzyme = target: T1, HDAC1 enzyme (Homo sapiens, UniProt Q13547); experiment: HDAC1/6 Enzyme Inhibitory Assay (HDAC-Glo I/II Assay kit), HDAC1; conditions: 1 μM test compound; wells without enzyme = 100% inhibition; read-out: HDAC1 inhibitory rate (%) (1 μM)
T1 construct: transducing full length HDAC1 and HDAC6 genes into Sf-9 insect cells; GST; purchased SignalChem; host or cells: Sf-9 insect cells
T1 sequence (Q13547 whole entry): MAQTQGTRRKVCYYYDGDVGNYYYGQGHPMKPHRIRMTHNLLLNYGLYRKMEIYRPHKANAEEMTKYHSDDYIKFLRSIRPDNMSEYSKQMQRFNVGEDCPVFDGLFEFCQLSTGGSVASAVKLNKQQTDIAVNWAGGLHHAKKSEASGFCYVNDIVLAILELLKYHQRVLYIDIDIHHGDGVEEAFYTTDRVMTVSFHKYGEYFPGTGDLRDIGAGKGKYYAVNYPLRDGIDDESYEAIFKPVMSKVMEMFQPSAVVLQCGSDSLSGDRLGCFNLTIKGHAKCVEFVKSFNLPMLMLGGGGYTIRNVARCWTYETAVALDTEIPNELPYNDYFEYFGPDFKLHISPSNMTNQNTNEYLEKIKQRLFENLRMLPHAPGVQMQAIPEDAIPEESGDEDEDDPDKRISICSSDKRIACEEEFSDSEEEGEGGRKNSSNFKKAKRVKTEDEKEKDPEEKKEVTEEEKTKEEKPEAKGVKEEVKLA
Method in brief: (§1)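 Full-length human HDAC1 or HDAC6, GST-purified from Sf-9 cells, was preincubated with compound for 60 min at room temperature in Tris-HCl pH 7.5 buffer with MgCl2, KCl, NaCl, glutathione and Tween-20. HDAC-Glo I/II substrate-developer was then added and reacted for 20 min before luminescence was read. Inhibition was set relative to no-enzyme wells as 100% inhibition.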

HDAC6 enzyme = target: T2, HDAC6 enzyme (Homo sapiens, UniProt Q9UBN7); experiment: HDAC1/6 Enzyme Inhibitory Assay (HDAC-Glo I/II Assay kit), HDAC6; conditions: 1 μM test compound; wells without enzyme = 100% inhibition; read-out: HDAC6 inhibitory rate (%) (1 μM)
T2 construct: transducing full length HDAC1 and HDAC6 genes into Sf-9 insect cells; GST; purchased SignalChem; host or cells: Sf-9 insect cells
T2 sequence (Q9UBN7 1-1215): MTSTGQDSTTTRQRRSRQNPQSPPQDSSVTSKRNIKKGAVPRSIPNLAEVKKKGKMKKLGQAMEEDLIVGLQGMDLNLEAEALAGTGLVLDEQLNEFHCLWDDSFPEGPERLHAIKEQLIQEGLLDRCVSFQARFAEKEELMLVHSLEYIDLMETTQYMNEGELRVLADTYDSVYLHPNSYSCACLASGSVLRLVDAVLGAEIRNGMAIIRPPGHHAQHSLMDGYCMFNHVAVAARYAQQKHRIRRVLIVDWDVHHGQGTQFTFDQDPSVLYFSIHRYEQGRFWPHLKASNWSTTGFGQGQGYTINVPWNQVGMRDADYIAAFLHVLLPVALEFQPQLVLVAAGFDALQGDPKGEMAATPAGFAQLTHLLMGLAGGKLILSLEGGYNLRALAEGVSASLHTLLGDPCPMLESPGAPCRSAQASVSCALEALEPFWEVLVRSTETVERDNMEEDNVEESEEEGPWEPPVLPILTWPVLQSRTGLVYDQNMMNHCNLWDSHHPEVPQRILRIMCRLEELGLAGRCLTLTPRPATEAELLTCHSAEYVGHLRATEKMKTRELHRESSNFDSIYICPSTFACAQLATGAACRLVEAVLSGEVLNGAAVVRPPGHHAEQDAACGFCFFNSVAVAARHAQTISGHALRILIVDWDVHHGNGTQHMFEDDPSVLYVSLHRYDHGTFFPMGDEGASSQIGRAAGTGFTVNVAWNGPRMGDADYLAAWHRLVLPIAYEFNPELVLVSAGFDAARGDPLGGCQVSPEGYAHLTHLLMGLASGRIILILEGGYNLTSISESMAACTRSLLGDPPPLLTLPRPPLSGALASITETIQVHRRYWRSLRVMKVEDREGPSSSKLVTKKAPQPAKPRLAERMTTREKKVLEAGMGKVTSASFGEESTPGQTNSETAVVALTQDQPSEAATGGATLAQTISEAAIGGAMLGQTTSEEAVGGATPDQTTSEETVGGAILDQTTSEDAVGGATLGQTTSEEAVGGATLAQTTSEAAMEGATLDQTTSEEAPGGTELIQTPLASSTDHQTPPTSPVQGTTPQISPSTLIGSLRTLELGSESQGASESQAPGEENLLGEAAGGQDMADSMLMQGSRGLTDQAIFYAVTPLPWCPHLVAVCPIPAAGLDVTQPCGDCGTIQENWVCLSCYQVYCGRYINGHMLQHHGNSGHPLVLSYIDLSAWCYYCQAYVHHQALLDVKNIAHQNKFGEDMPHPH
Method in brief: as §1

HDAC9 enzyme = target: T3, HDAC9 enzyme (Homo sapiens, UniProt Q9UKV0); experiment: HDAC9 Enzyme Inhibitory Assay (HDAC-Glo class IIa); conditions: 1 μM test compound; wells without enzyme = 100% inhibition; read-out: HDAC9 inhibitory rate (%) (1 μM)
T3 construct: transducing full length HDAC9 gene into Sf-9 insect cells; made in house; host or cells: Sf-9 insect cells
T3 sequence (Q9UKV0 whole entry, species assumed): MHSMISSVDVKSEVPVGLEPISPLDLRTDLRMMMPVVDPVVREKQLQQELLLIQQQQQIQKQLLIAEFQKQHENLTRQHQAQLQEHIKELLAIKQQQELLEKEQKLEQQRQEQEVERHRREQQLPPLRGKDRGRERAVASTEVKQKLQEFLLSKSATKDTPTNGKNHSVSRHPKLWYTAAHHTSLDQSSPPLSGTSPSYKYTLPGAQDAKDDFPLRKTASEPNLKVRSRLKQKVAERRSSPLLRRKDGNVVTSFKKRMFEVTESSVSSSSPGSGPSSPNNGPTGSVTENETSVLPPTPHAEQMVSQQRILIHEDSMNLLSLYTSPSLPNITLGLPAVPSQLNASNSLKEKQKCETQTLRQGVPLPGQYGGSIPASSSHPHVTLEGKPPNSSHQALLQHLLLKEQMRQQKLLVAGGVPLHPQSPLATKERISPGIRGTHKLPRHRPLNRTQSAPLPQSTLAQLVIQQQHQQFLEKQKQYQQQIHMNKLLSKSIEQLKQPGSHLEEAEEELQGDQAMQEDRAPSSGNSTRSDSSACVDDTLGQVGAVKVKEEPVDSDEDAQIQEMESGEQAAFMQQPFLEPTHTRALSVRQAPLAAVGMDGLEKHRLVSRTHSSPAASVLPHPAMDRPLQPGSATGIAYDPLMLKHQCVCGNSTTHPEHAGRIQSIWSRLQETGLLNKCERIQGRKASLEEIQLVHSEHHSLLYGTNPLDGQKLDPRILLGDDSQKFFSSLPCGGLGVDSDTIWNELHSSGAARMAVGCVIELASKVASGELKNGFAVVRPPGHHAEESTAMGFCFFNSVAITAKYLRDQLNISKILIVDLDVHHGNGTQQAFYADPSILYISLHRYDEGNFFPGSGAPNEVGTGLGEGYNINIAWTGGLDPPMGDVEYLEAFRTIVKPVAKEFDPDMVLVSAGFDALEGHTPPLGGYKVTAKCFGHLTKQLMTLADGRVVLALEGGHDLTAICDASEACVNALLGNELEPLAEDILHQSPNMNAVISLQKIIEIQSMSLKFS
Method in brief: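 Full-length human HDAC9 from Sf-9 cells, Ni-NTA purified, preincubated with compound for 60 min at room temperature in Tris-HCl pH 7.5 buffer (MgCl2, KCl, NaCl, glutathione, Tween-20). HDAC-Glo class IIa substrate-developer added; luminescence read after 20 min, with no-enzyme wells defining 100% inhibition.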

| Compound | inhibition at 1 µM (HDAC1 enzyme) [%] | inhibition at 1 µM (HDAC6 enzyme) [%] | inhibition at 1 µM (HDAC9 enzyme) [%] |
| --- | --- | --- | --- |
| O=C(N[C@H]1COCC[C@@H]1N1Cc2ccc(-c3noc(C(F)(F)F)n3)cc2C1=O)[C@@H]1CC1(F)F [Example 220, (1S)-2,2-difluoro-N-((3R,4S)-4-(1-oxo-6-(5-(trifluoromethyl)-1,2,4-oxadiazol-3-yl)-1,3-dihydro-2H-isoindol-2-yl)tetrahydro-2H-pyran-3-yl)cyclopropanecarboxamide] | 23 | 84 | 65 |
| CCNC(=O)N1CC[C@@H](N2Cc3ccc(-c4noc(C(F)(F)F)n4)cc3C2=O)[C@H](c2ccccc2)C1 [Example 44, (3R,4R)-N-ethyl-4-(1-oxo-6-(5-(trifluoromethyl)-1,2,4-oxadiazol-3-yl)-1,3-dihydro-2H-isoindol-2-yl)-3-phenylpiperidine-1-carboxamide] | 88 | 98 | 95 |
| CC1(C)CC1C(=O)N[C@@H]1CCCC[C@H]1N1Cc2ccc(-c3noc(C(F)(F)F)n3)cc2C1=O (stereo partly drawn) [Example 107, 2,2-dimethyl-N-((1R,2R)-2-(1-oxo-6-(5-(trifluoromethyl)-1,2,4-oxadiazol-3-yl)-1,3-dihydro-2H-isoindol-2-yl)cyclohexyl) cyclopropanecarboxamide] | 11 | 99 | 57 |
| O=C1c2cc(-c3noc(C(F)(F)F)n3)ccc2CN1[C@@H]1CCNC[C@H]1c1ccccc1 [Example 15, 2-((3R,4R)-3-phenylpiperidin-4-yl)-6-(5-(trifluoromethyl)-1,2,4-oxadiazol-3-yl)isoindolin-1-one] | 97 | 98 | 99 |
| CC1(C)C(C(=O)N[C@@H]2CCCC[C@H]2N2Cc3ccc(-c4noc(C(F)(F)F)n4)cc3C2=O)C1(C)C [Example 99, 2,2,3,3-tetramethyl-N-((1R,2R)-2-(1-oxo-6-(5-(trifluoromethyl)-1,2,4-oxadiazol-3-yl)-1,3-dihydro-2H-isoindol-2-yl)cyclohexyl) cyclopropanecarboxamide] | 13 | 100 | 51 |
| C[C@H](c1ccccc1)N1CC[C@H]2CC[C@H](N3Cc4ccc(-c5noc(C(F)(F)F)n5)cc4C3=O)[C@H]21 [Example 63, 2-((3aR,6S,6aS)-1-((1R)-1-phenylethyl)octahydrocyclopenta[b]pyrrol-6-yl)-6-(5-(trifluoromethyl)-1,2,4-oxadiazol-3-yl)isoindolin-1-one] | 15 | 90 | 82 |
| O=C(N[C@@H]1COCC[C@H]1N1Cc2ccc(-c3noc(C(F)(F)F)n3)cc2C1=O)C1CC1 [Example 82, N-((3S,4R)-4-(1-oxo-6-(5-(trifluoromethyl)-1,2,4-oxadiazol-3-yl)-1,3-dihydro-2H-isoindol-2-yl)tetrahydro-2H-pyran-3-yl)cyclopropanecarboxamide] | 10 | 99 | 61 |
| O=C(N[C@H]1CCOC[C@@H]1N1Cc2ccc(-c3noc(C(F)(F)F)n3)cc2C1=O)[C@H]1CCOC1 [Example 210, (3S)-N-((3R,4S)-3-(1-oxo-6-(5-(trifluoromethyl)-1,2,4-oxadiazol-3-yl)-1,3-dihydro-2H-isoindol-2-yl)tetrahydro-2H-pyran-4-yl)tetrahydrofuran-3-carboxamide] | 10 | 55 | 56 |
| O=C1CCC2(CCC(N3Cc4ccc(-c5noc(C(F)(F)F)n5)cc4C3=O)CC2)N1 (stereo not drawn) [Example 64, (5r,8r)-8-(1-oxo-6-(5-(trifluoromethyl)-1,2,4-oxadiazol-3-yl)-1,3-dihydro-2H-isoindol-2-yl)-1-azaspiro[4.5]decan-2-one] | 6 | 93 | 70 |
| COc1ccc([C@@H]2CNCC[C@H]2N2Cc3ccc(-c4noc(C(F)(F)F)n4)cc3C2=O)cc1 (relative stereo) [Example 55, 2-(trans-3-(4-methoxyphenyl)piperidin-4-yl)-6-(5-(trifluoromethyl)-1,2,4-oxadiazol-3-yl)isoindolin-1-one] | 95 | 96 | 99 |
| CC1(C(=O)N[C@@H]2CCCC[C@H]2N2Cc3ccc(-c4noc(C(F)(F)F)n4)cc3C2=O)CNC1 [Example 194, 3-methyl-N-((1R,2R)-2-(1-oxo-6-(5-(trifluoromethyl)-1,2,4-oxadiazol-3-yl)-1,3-dihydro-2H-isoindol-2-yl)cyclohexyl)azetidine-3-carboxamide] | 3 | 100 | 26 |
| O=C1c2cc(-c3noc(C(F)(F)F)n3)ccc2CN1C1CCNC[C@@H]1c1cc(Cl)cc(Cl)c1 (stereo in doubt) [Example 58, 2-(trans-3-(3,5-dichlorophenyl)piperidin-4-yl)-6-(5-(trifluoromethyl)-1,2,4-oxadiazol-3-yl)isoindolin-1-one] | 99 | 98 | 99 |
| COC1(C(=O)N[C@@H]2CCCC[C@H]2N2Cc3ccc(-c4noc(C(F)(F)F)n4)cc3C2=O)CCC1 [Example 175, 1-methoxy-N-((1R,2R)-2-(1-oxo-6-(5-(trifluoromethyl)-1,2,4-oxadiazol-3-yl)-1,3-dihydro-2H-isoindol-2-yl)cyclohexyl)cyclobutanecarboxamide] | 5 | 100 | 57 |
| C[C@H](c1ccccc1)N1CC[C@@H]2CC[C@@H](N3Cc4ccc(-c5noc(C(F)(F)F)n5)cc4C3=O)[C@@H]21 [Example 62, 2-((3aS,6R,6aR)-1-((1R)-1-phenylethyl)octahydrocyclopenta[b]pyrrol-6-yl)-6-(5-(trifluoromethyl)-1,2,4-oxadiazol-3-yl)isoindolin-1-one] | 46 | 98 | 89 |
| O=C1c2cc(-c3noc(C(F)(F)F)n3)ccc2CN1[C@@H]1CCCC[C@H]1NS(=O)(=O)C1CC1 [Example 89, N-((1R,2R)-2-(1-oxo-6-(5-(trifluoromethyl)-1,2,4-oxadiazol-3-yl)-1,3-dihydro-2H-isoindol-2-yl)cyclohexyl) cyclopropanesulfonamide] | 37 | 98 | 85 |
| CC(C)(C)OC(=O)N[C@H]1CCC[C@@H]1N1Cc2ccc(-c3noc(C(F)(F)F)n3)cc2C1=O [Example 141, tert-butyl ((1S,2S)-2-(1-oxo-6-(5-(trifluoromethyl)-1,2,4-oxadiazol-3-yl)-1,3-dihydro-2H-isoindol-2-yl)cyclopentyl)carbamate] | 28 | 42 | 43 |
| O=C(N[C@@H]1CCCC[C@H]1N1Cc2ncc(-c3noc(C(F)(F)F)n3)cc2C1=O)C1CC1 [Example 84, N-((1R,2R)-2-(5-oxo-3-(5-(trifluoromethyl)-1,2,4-oxadiazol-3-yl)-5,7-dihydro-6H-pyrrolo[3,4-b]pyridin-6-yl)cyclohexyl) cyclopropanecarboxamide] | 18 | 102 | 85 |
